From patent publication US12187816B2, “Macrocyclic compounds and methods of use thereof” (Genentech, Inc., priority 2020, dated 2025) come the findings set out here.

Starred links: 1 amine or outer side, 2 acyl side, 3 side chain; linkers in the order of their positions; H or OH if unused. Positions of bridges follow the written chain, without caps; N, C: chain ends. Non-standard residues stand in square brackets, D forms with d. Residues, ends and D or L forms follow the SMILES beside them. *: point of attachment. X14 = Cn1cc2c3c(c[nH]c3c1=O)CN(c1ncc(F)cc1F)c1cc(C(=O)*)c(CS(C)(=O)=O)cc1-2; X11 = CC(=O)N1c2ccc(-c3ccc(C(=O)*)cc3)cc2[C@H](Nc2ccc(Cl)cc2)C[C@@H]1C; JQ1acid = Cc1sc2c(c1C)C(c1ccc(Cl)cc1)=N[C@@H](CC(=O)*)c1nnc(C)n1-2; dPhg(4-(4-Me-thiazol-5-yl)) = Cc1ncsc1-c1ccc([C@@H](N)C(=O)O)cc1; Bip = N[C@@H](Cc1ccc(-c2ccccc2)cc1)C(=O)O; X5 = O=C([C@@H](Cc1ccc(Br)s1)N[*:1])[*:2]; dBip = N[C@H](Cc1ccc(-c2ccccc2)cc1)C(=O)O; X7 = O=C([C@H](Cc1ccc(Br)s1)N[*:1])[*:2]; X4 = O=C([C@H]1CN([*:3])CCN1[*:1])[*:2]; Hyp = O=C(O)[C@@H]1C[C@@H](O)CN1; Tle = CC(C)(C)[C@H](N)C(=O)O; dDap = NC[C@@H](N)C(=O)O

The experiment deals with T1, BRD4 (Homo sapiens, UniProt O60885).
T1 construct: Mean 488 intensity of BRD4 quantitated in nuclear region; endogenous in cells; host or cells: EoL-1 eosinophilic leukemia cells
The experiment is described as follows: BRD4 degradation assay in EOL1 cells (immunofluorescence imaging). The experiment is classed as cell-based. To be noted: EoL-1 eosinophilic leukemia cells, 4 hours treatment, nuclear BRD4 immunofluorescence. The procedure: BRD4 Degradation Assay in EOL1 Cells
EoL-1 eosinophilic leukemia cells were seeded on day 1 at a density of 45,000 cells per well in Corning PureCoat Amine Microplates, (Corning #354719) in 45 μL/well of assay media (RPMI, 10% FBS, containing L-glutamine). After cells attached to cell plate, compounds were serially diluted ⅓ in dimethylsulfoxide (DMSO) to create 20-point dilutions across a 384 well v-bottom polypropylene microplate (Greiner #781091). 2 μL of each sample from the serial dilution was transferred to 98 μL of assay media as an intermediate dilution. 5 μL of each well of the intermediate dilution was added to 45 μL of cell plate. Columns 1, 2, 23 and 24 were treated with only 0.2% final concentration of DMSO for data normalization as “neutral controls”. After compound treatment, cell plates were stored in a 37° C. incubator for 4 hours. After 4 hours cells were fixed in 3.7% w/v final concentration of paraformaldehyde by addition of 15 μL of 16% w/v paraformaldehyde (Electron Microscopy Sciences #15710-S) directly to the 50 μL media and compound in the cell plate. Cell plate was incubated at RT for 20 minutes. Well contents were aspirated and washed with 100 μL/well PBS 3 times. 50 ul/well of phosphate Buffered Saline (PBS) (pH 7.5) containing 0.5% w/v bovine serum albumen, 0.5% w/v Triton X-100 (Block/Permeabilization Buffer) was added to each well. Samples were incubated for 20 minutes. Well contents were aspirated and washed 3 times with 100 μL/well of PBS. PBS was aspirated from the well and 50 μL per well of EoL-1 Block Buffer (PBS containing 10% Normal Goat Serum (AbCam #ab7481)) was added to each well. Plates were incubated at room temperature for 30 minutes. Block buffer was decanted from the wells. Immunofluorescence staining of BRD4 was carried out by diluting mAB Anti-BRD4 [EPR5150] antibody (Abcam 128874) 1:500 into Antibody Dilution Buffer (PBS, 2% Normal Goat Serum). 25 μL per well of BRD4 antibody diluted in buffer was added and incubated overnight at 4° C.
On day-2 samples were washed 3 times with 100 μL/well of PBS. 25 μL/well of secondary antibody solution (Goat Anti-Rabbit IgG, DyLight 488 Conjugated Highly Cross-adsorbed Thermo Fisher #35553) and Hoechst 33342 1 μg/ml diluted in Antibody Dilution Buffer) were dispensed into each well. Hoechst 33342 only was added to bottom 3 columns for data normalization as “inhibitor controls”. Samples were incubated for 2 hours at room temperature. Samples were washed 3 times with 100 μL PBS. Quantitative fluorescence imaging of BRD4 was carried out using an Opera Phenix High-Content Screening System. Fluorescent images of the samples were captured using 488 nm and 405 nm channels. Hoechst channel was used to identify nuclear region. Mean 488 intensity of BRD4 quantitated in nuclear region. Data analysis was carried out using Genedata Screener, with DMSO and no primary antibody control treated samples being used to define the 0% and 100% changes in BRD4. The dose-response log(inhibitor) vs. response used to define the inflexion point of curve (DC50) and the plateau of the maximal effect.
The individual topological polar surface area (TPSA) and cLogP values were calculated using Chemdraw v. 15.1 (PerkinElmer). Half life of the ternary VHL/BD1 and VHL/BD2 complexes, DC50 of BRD4 in EOL1 cells, topological polar surface area of a molecule (TPSA) and c log P (lipophilicity) for compounds described herein are provided in Table 3.
The DC50 is the concentration at which degradation of the target reaches its halfway point. The low end stands for degradation at low concentration, the high end for degradation only at high concentration. `Cc1sc2c(c1C)C(c1ccc(Cl)cc1)=N[C@@H](CC(=O)NC[C@H]1NC(=O)CNC(=O)[C@@H](Cc3ccc(-c4ccccc4)cc3)NC(=O)[C@@H]3C[C@@H](O)CN3C(=O)[C@H](C(C)(C)C)NC(=O)CSC[C@H](C(N)=O)NC1=O)c1nnc(C)n1-2` [Compound 18] ({CH2CO}-[Tle][Hyp][dBip]G[dDap](JQ1acid)[dC]-NH2; thioether N-6) yielded a DC50 below 1 µM. In turn, `Cc1sc2c(c1C)C(c1ccc(Cl)cc1)=N[C@@H](CC(=O)NC[C@H]1NC(=O)CNC(=O)[C@H](Cc3ccc(-c4ccccc4)cc3)NC(=O)[C@@H]3C[C@@H](O)CN3C(=O)[C@H](C(C)(C)C)NC(=O)CSC[C@H](C(N)=O)NC1=O)c1nnc(C)n1-2` [Compound 19] ({CH2CO}-[Tle][Hyp][Bip]G[dDap](JQ1acid)[dC]-NH2; thioether N-6) came in with a DC50 below 20 µM. Consider `Cc1sc2c(c1C)C(c1ccc(Cl)cc1)=N[C@@H](CC(=O)NC[C@H]1NC(=O)CNC(=O)[C@H](Cc3ccc(Br)s3)NC(=O)[C@@H]3C[C@@H](O)CN3C(=O)[C@H](C(C)(C)C)NC(=O)CSC[C@H](C(N)=O)NC1=O)c1nnc(C)n1-2` [Compound 20] ({CH2CO}-[Tle][Hyp][X7]G[dDap](JQ1acid)[dC]-NH2; thioether N-6), for which the DC50 was below 1 µM.

In the case of `CC(=O)N1c2ccc(-c3ccc(C(=O)NC[C@H]4NC(=O)CNC(=O)[C@@H](c5ccc(-c6scnc6C)cc5)NC(=O)[C@@H]5C[C@@H](O)CN5C(=O)[C@H](C(C)(C)C)NC(=O)CSC[C@H](C(N)=O)NC4=O)cc3)cc2[C@H](Nc2ccc(Cl)cc2)C[C@@H]1C` [Compound 21] ({CH2CO}-[Tle][Hyp][dPhg(4-(4-Me-thiazol-5-yl))]G[dDap](X11)[dC]-NH2; thioether N-6), the DC50 is above 20 µM. For `Cc1ncsc1-c1ccc([C@H]2NC(=O)[C@@H]3C[C@@H](O)CN3C(=O)[C@H](C(C)(C)C)NC(=O)CSC[C@H](C(N)=O)NC(=O)[C@@H](CNC(=O)c3cc4c(cc3CS(C)(=O)=O)-c3cn(C)c(=O)c5[nH]cc(c35)CN4c3ncc(F)cc3F)NC(=O)CNC2=O)cc1` [Compound 22] ({CH2CO}-[Tle][Hyp][dPhg(4-(4-Me-thiazol-5-yl))]G[dDap](X14)[dC]-NH2; thioether N-6) the value was above 20 µM. `Cc1sc2c(c1C)C(c1ccc(Cl)cc1)=N[C@@H](CC(=O)NC[C@H]1NC(=O)CNC(=O)[C@@H](Cc3ccc(Br)s3)NC(=O)[C@@H]3C[C@@H](O)CN3C(=O)[C@H](C(C)(C)C)NC(=O)CSC[C@H](C(N)=O)NC1=O)c1nnc(C)n1-2` [Compound 23] ({CH2CO}-[Tle][Hyp][X5]G[dDap](JQ1acid)[dC]-NH2; thioether N-6): the DC50 was below 1 µM. In the case of `COc1ccc(C[C@@H]2NC(=O)[C@@H]3C[C@@H](O)CN3C(=O)[C@H](C(C)(C)C)NC(=O)CSC[C@H](C(N)=O)NC(=O)[C@@H](CNC(=O)C[C@@H]3N=C(c4ccc(Cl)cc4)c4c(sc(C)c4C)-n4c(C)nnc43)NC(=O)CNC2=O)cc1` [Compound 24] ({CH2CO}-[Tle][Hyp]Y(Me)G[dDap](JQ1acid)[dC]-NH2; thioether N-6), the DC50 is above 20 µM. Compound `Cc1ncsc1-c1ccc([C@H]2NC(=O)[C@@H]3C[C@@H](O)CN3C(=O)[C@H](C(C)(C)C)NC(=O)CSC[C@H](C(N)=O)NC(=O)[C@H]3CN(C(=O)C[C@@H]4N=C(c5ccc(Cl)cc5)c5c(sc(C)c5C)-n5c(C)nnc54)CCN3C(=O)CNC2=O)cc1` [Compound 25] ({CH2CO}-[Tle][Hyp][dPhg(4-(4-Me-thiazol-5-yl))]G[X4](JQ1acid)[dC]-NH2; thioether N-6) gave a half-maximal degradation concentration (DC50) below 20 µM. As to `Cc1ncsc1-c1ccc([C@H]2NC(=O)[C@@H]3C[C@@H](O)CN3C(=O)[C@H](C(C)(C)C)NC(=O)CSC[C@H](C(N)=O)NC(=O)[C@@H](CNC(=O)C[C@@H]3N=C(c4ccc(Cl)cc4)c4c(sc(C)c4C)-n4c(C)nnc43)NC(=O)[C@@H](C)NC2=O)cc1` [Compound 26] ({CH2CO}-[Tle][Hyp][dPhg(4-(4-Me-thiazol-5-yl))][dA][dDap](JQ1acid)[dC]-NH2; thioether N-6), the DC50 is below 1 µM.
